Data as given in patent US8143303B2, “Carbazole derivatives as functional 5-HT6 ligands” (Suven Life Sciences Limited, priority 2005, dated 2012).

How the values were obtained:
[1] = target: T1, Human 5-HT6 receptor (Homo sapiens, UniProt P50406); experiment: Nova Screen binding assay for human 5-HT6 receptor ([3H]LSD); settings: Human recombinant receptor expressed in HEK-293 cells; [3H]LSD 1.5 nM; 60 minutes at 37° C.
T1 construct: host or cells: HEK-293
Description: Nova Screen Binding Assay for Human 5-HT6 Receptor
Pharmacological data Compounds can be tested according to the following the procedures.
Receptor source: Human recombinant expressed in HEK-293 cells
Radioligand: [^3H]LSD (60-80 Ci/mmol)
Final ligand concentration—[1.5 nM]
Non-specific determinant: Methiothepin mesylate—[0.1 μM]
Reference compound: Methiothepin mesylate
Positive control: Methiothepin mesylate
Incubation conditions: Reactions were carried out in 50 mM TRIS HCl (pH 7.4) containing 10 mM MgCl2, 0.5 mM EDTA for 60 minutes at 37° C. The reaction was terminated by rapid vacuum filtration onto glass fiber filters. Radioactivity trapped onto the filters was determined and compared to control values in order to ascertain any interactions of test compound(s) with the cloned serotonin-5HT6 binding site.
Mol. Pharmacol. (43): 320-327 (1993).

T1 sequence (P50406 whole entry): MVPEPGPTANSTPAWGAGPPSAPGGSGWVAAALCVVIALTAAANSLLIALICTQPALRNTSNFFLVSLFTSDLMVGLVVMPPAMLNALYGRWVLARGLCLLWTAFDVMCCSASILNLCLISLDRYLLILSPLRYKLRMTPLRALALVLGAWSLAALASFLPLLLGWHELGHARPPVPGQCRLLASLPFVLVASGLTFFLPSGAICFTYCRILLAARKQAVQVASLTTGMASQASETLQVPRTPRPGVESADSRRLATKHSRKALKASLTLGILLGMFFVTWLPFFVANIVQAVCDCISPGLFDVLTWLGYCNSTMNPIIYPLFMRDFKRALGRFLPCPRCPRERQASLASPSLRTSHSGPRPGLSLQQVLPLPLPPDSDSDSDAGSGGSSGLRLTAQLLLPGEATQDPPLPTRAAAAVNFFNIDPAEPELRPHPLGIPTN

| melting point | IC50 [1] | Ki [1] | Compound |
| --- | --- | --- | --- |
| 152.75 to 154.98 °C |  |  | CC(C)c1ccc(S(=O)(=O)n2c3c(c4cc(Br)ccc42)CC(N(C)C)CC3)cc1 (stereo not drawn) |
| 150 to 155 °C |  |  | CN(C)C1CCc2c(c3cc(Cl)ccc3n2S(=O)(=O)c2ccccc2)C1 (stereo not drawn) |
| 130 to 138 °C |  |  | Cc1ccc(S(=O)(=O)n2c3c(c4cc(Cl)ccc42)CC(N(C)C)CC3)cc1 (stereo not drawn) |
| 130.2 to 132.8 °C | 27 nM | 12.5 nM | CN(C)C1CCc2c(c3ccccc3n2S(=O)(=O)c2ccc(F)cc2)C1 (stereo not drawn) [Example 3, 9-[(4-Fluorobenzenesulphonyl)-2,3,4,9-tetrahydro-1H-carbazol-3-yl]dimethylamine] |
| 158.78 to 161.04 °C |  |  | CN(C)C1CCc2c(c3cc(Br)ccc3n2S(=O)(=O)c2ccccc2Br)C1 (stereo not drawn) [Example 14, [6-Bromo-9-(2-bromobenzenesulphonyl)-2,3,4,9-tetrahydro-1H-carbazol-3-yl]dimethylamine] |
| 150 to 155 °C |  |  | CN(C)C1CCc2c(c3cc(Cl)ccc3n2S(=O)(=O)c2ccc(F)cc2)C1 (stereo not drawn) [Example 20, [6-Chloro-9-(4-fluorobenzenesulfonyl)-2,3,4,9-tetrahydro-1H-carbazol-3-yl]dimethylamine] |
| 127.7 to 130.3 °C | 30.5 nM | 15.7 nM | CN(C)C1CCc2c(c3cc(F)ccc3n2S(=O)(=O)c2ccccc2)C1 (stereo not drawn) [Example 21, [6-Fluoro-9-benzenesulfonyl-2,3,4,9-tetrahydro-1H-carbazol-3-yl]dimethylamine] |
| 95.4 to 103.8 °C | 33.4 nM | 15.5 nM | CC(C)c1ccc(S(=O)(=O)n2c3c(c4cc(F)ccc42)CC(N(C)C)CC3)cc1 (stereo not drawn) [Example 23, [6-Fluoro-9-(4-isopropylbenzenesulfonyl)-2,3,4,9-tetrahydro-1H-carbazol-3-yl]dimethylamine] |
| 170.6 to 174.1 °C | 99.7 nM | 43.5 nM | CN(C)C1CCc2c(c3cc(F)ccc3n2S(=O)(=O)c2ccc(Br)cc2)C1 (stereo not drawn) [Example 24, [6-Fluoro-9-(4-bromobenzenesulfonyl)-2,3,4,9-tetrahydro-1H-carbazol-3-yl]dimethylamine] |
| 147.5 to 151.2 °C | 63.5 nM | 32.8 nM | CN(C)C1CCc2c(c3cc(F)ccc3n2S(=O)(=O)c2ccc(F)cc2)C1 (stereo not drawn) [Example 25, [6-Fluoro-9-(4-fluorobenzenesulfonyl)-2,3,4,9-tetrahydro-1H-carbazol-3-yl]dimethylamine] |
|  | 10.8 nM | 5.44 nM | COc1ccc2c(c1)c1c(n2S(=O)(=O)c2ccccc2)CCC(N(C)C)C1 (stereo not drawn) [Example 26, [6-Methoxy-9-benzenesulfonyl-2,3,4,9-tetrahydro-1H-carbazol-3-yl]dimethylamine] |
| 173.2 to 173.8 °C | 28.9 nM | 15.1 nM | COc1ccc2c(c1)c1c(n2S(=O)(=O)c2ccc(Br)cc2)CCC(N(C)C)C1 (stereo not drawn) [Example 29, [6-Methoxy-9-(4-bromobenzenesulfonyl)-2,3,4,9-tetrahydro-1H-carbazol-3-yl]dimethylamine] |
| 144 to 146 °C |  |  | COc1ccc2c(c1)c1c(n2S(=O)(=O)c2cccc(C(F)(F)F)c2)CCC(N(C)C)C1 (stereo not drawn) [Example 31, [6-Methoxy-9-(3-trifluoromethylbenzenesulfonyl)-2,3,4,9-tetrahydro-1H-carbazol-3-yl]dimethylamine] |
| 105.2 to 115 °C | 26.1 nM | 13.8 nM | CSc1ccc2c(c1)c1c(n2S(=O)(=O)c2ccc(C)cc2)CCC(N(C)C)C1 (stereo not drawn) [Example 33, [6-Methylthio-9-(4-methylbenzenesulfonyl)-2,3,4,9-tetrahydro-1H-carbazol-3-yl]dimethylamine] |
| 189 to 192 °C |  |  | CN(C)C1CCc2c(c3cc(Br)ccc3n2S(=O)(=O)c2cccc(Cl)c2Cl)C1 (stereo not drawn) [Example 39, [6-Bromo-9-(2,3-dichlorobenzenesulphonyl)-2,3,4,9-tetrahydro-1H-carbazol-3-yl]dimethylamine] |

| Compound | melting point | IC50 [1] | Ki [1] |
| --- | --- | --- | --- |
| CN(C)C1CCc2c(c3cc(Br)ccc3n2S(=O)(=O)c2ccc(F)cc2)C1 (stereo not drawn) [Example 11, [6-Bromo-9-(4-fluorobenzenesulphonyl)-2,3,4,9-tetrahydro-1H-carbazol-3-yl]dimethylamine] | 158.1 to 160 °C | 20.2 nM | 9.42 nM |
| Cc1ccc(S(=O)(=O)n2c3c(c4cc(F)ccc42)CC(N(C)C)CC3)cc1 (stereo not drawn) [Example 22, [6-Fluoro-9-(4-methylbenzenesulfonyl)-2,3,4,9-tetrahydro-1H-carbazol-3-yl]dimethylamine] | 148.8 to 153 °C | 64.3 nM | 32.4 nM |
| COc1ccc2c(c1)c1c(n2S(=O)(=O)c2ccc(C)cc2)CCC(N(C)C)C1 (stereo not drawn) [Example 27, [6-Methoxy-9-(4-methylbenzenesulfonyl)-2,3,4,9-tetrahydro-1H-carbazol-3-yl]dimethylamine] | 131.8 to 140 °C | 11.7 nM | 5.89 nM |
| COc1ccc2c(c1)c1c(n2S(=O)(=O)c2ccc(F)cc2)CCC(N(C)C)C1 (stereo not drawn) [Example 30, [6-Methoxy-9-(4-fluorobenzenesulfonyl)-2,3,4,9-tetrahydro-1H-carbazol-3-yl]dimethylamine] | 160.7 to 163.4 °C | 52.3 nM | 24.3 nM |
| CSc1ccc2c(c1)c1c(n2S(=O)(=O)c2ccc(F)cc2)CCC(N(C)C)C1 (stereo not drawn) [Example 35] | 148.9 to 156.1 °C | 47.1 nM | 24.9 nM |
